Measured values as given in patent US10766929B2, “De novo designed hemagglutinin binding proteins” (UNIVERSITY OF WASHINGTON, priority 2017, dated 2020).
Converted amounts (≈) assume the structure as drawn. Positions of bridges follow the written chain, without caps; N, C: chain ends. Residues, ends and D or L forms follow the SMILES beside them. No end group written: not given here.

Legend:
biotinylated HA proteins = assay type: physicochemical, influenza
[1] = test system: A/California/04/09 (H1N1) (CA09); design: species or system BALB/c mice; settings: mouse, in vivo
[2] = test system: flu virus strains Ca0409 and Ft. Monmout; settings: both strains
CA09 influenza virus = assay type: cell-based, influenza virus (Madin-Darby Canine Kidney Epithelial Cells)
[3] = test system: H1N1 (CA09) influenza virus; design: species or system Ferrets; settings: in vivo
PR8 influenza virus = assay type: cell-based, influenza virus (Madin-Darby Canine Kidney Epithelial Cells)

Compound | EC50 for inhibition of viral replication in vitro (Virus Ca0409) | EC50 for inhibition of viral replication in vitro (Virus Ft. Monmouth) | loss of binding activity after high temperature exposure (biotinylated HA proteins) | dose fold lower on a mass basis than the FI6v3 dose required for equivalent protection [1] | survival [1] | weight loss [1] | protection ([1]; iv) | IC50 against flu virus strains Ca0409 and Ft. Monmout [2] | EC50 fold lower than FI6v3 and HB36.6 on a mass basis (CA09 influenza virus) | EC50 versus FI6v3 and HB36.6 on a molar basis (CA09 influenza virus) | changes in temperature [3] | clinical signs of disease [3] | weight loss [3] | EC50 fold lower than FI6v3 and HB36.6 on a mass basis (PR8 influenza virus) | EC50 versus FI6v3 and HB36.6 on a molar basis (PR8 influenza virus)
TIEQSFTTLFAAQTAAEIWRAFGYTVKIMQDNGNWRLHVT [TAWQT CS15990] | 20 ng/mL | 2 ng/mL |  |  |  |  |  |  |  |  |  |  |  |  | 
CC[C@H](C)[C@@H]1NC(=O)[C@H](CCC(=O)O)NC(=O)[C@H](C)NC(=O)[C@H](C)NC(=O)[C@H]([C@@H](C)O)NC(=O)[C@H](CCC(N)=O)NC(=O)[C@H](C)NC(=O)[C@H](C)NC(=O)[C@H](Cc2ccccc2)NC(=O)[C@H](CC(C)C)NC(=O)[C@H]([C@@H](C)O)NC(=O)[C@H]([C@@H](C)O)NC(=O)[C@H](Cc2ccccc2)NC(=O)[C@H](CO)NC(=O)[C@H](CCC(N)=O)NC(=O)[C@H](CCC(=O)O)NC(=O)[C@H]([C@@H](C)CC)NC(=O)[C@@H](N)CSSC[C@@H](C(=O)O)NC(=O)[C@H](C(C)C)NC(=O)[C@H](Cc2c[nH]cn2)NC(=O)[C@H](CC(C)C)NC(=O)[C@H](CCCNC(=N)N)NC(=O)[C@H](Cc2c[nH]c3ccccc23)NC(=O)[C@H](CC(N)=O)NC(=O)CNC(=O)[C@H](CC(N)=O)NC(=O)[C@H](CC(=O)O)NC(=O)[C@H](CCC(N)=O)NC(=O)[C@H](CCSC)NC(=O)[C@H]([C@@H](C)CC)NC(=O)[C@H](CCCCN)NC(=O)[C@H](C(C)C)NC(=O)[C@H]([C@@H](C)O)NC(=O)[C@H](Cc2ccc(O)cc2)NC(=O)CNC(=O)[C@H](Cc2ccccc2)NC(=O)[C@H](C)NC(=O)[C@H](CCCNC(=N)N)NC(=O)[C@H](Cc2c[nH]c3ccccc23)NC1=O [AQW CS15989] (H-CIEQSFTTLFAAQTAAEIWRAFGYTVKIMQDNGNWRLHVC-OH; disulfide 1-40; N-terminus and C-terminus assumed) | 10 ng/mL | 10 ng/mL |  |  |  |  |  |  |  |  |  |  |  |  | 
CC[C@H](C)[C@@H]1NC(=O)[C@H](CCC(=O)O)NC(=O)[C@H](C)NC(=O)[C@H](C)NC(=O)[C@H]([C@@H](C)O)NC(=O)[C@H](CCC(N)=O)NC(=O)[C@@H]2CSSC[C@H](NC(=O)[C@H](CC(N)=O)NC(=O)CNC(=O)[C@H](CC(N)=O)NC(=O)[C@H](CC(=O)O)NC(=O)[C@H](C(C)C)NC(=O)[C@H](CCSC)NC(=O)[C@H]([C@@H](C)CC)NC(=O)[C@H](CCCCN)NC(=O)[C@H](C(C)C)NC(=O)[C@H]([C@@H](C)O)NC(=O)[C@H](Cc3ccc(O)cc3)NC(=O)CNC(=O)[C@H](Cc3ccccc3)NC(=O)[C@H](C)NC(=O)[C@H](CCCNC(=N)N)NC(=O)[C@H](Cc3c[nH]c4ccccc34)NC1=O)C(=O)N[C@@H](CCCNC(=N)N)C(=O)N[C@@H](CC(C)C)C(=O)N[C@@H](Cc1c[nH]cn1)C(=O)N[C@@H](C(C)C)C(=O)N[C@H](C(=O)O)CSSC[C@H](N)C(=O)N[C@@H]([C@@H](C)CC)C(=O)N[C@@H](CCC(=O)O)C(=O)N[C@@H](CCC(N)=O)C(=O)N[C@@H](CO)C(=O)N[C@@H](Cc1ccccc1)C(=O)N[C@@H]([C@@H](C)O)C(=O)N[C@@H]([C@@H](C)O)C(=O)N[C@@H](CC(C)C)C(=O)N[C@@H](Cc1ccccc1)C(=O)N[C@@H](C)C(=O)N2 [HB1.6928.2.3] (H-CIEQSFTTLFACQTAAEIWRAFGYTVKIMVDNGNCRLHVC-OH; disulfide 1-40, 12-35; N-terminus and C-terminus assumed) |  | 0.02 ng/mL | no detectable loss of binding | 100 fold | 100% | < 10% | little protection | ~0.02 ng/mL (≈ 0.00441 nM) | more than 100 fold | comparable | no significant changes in temperature | minimal clinical signs of disease | no significant weight loss | more than 100 fold | comparable
